Earlier results on 1 compound are cited in patent US10912471B2, “System and method for automatic perfusion measurement” (priority 2018, dated 2021).

The test system of one data set is plasma proteins. The conditions noted are these: becomes confined to the vascular system.
For data set [1] the following is noted: administration not without risks, e.g. during pregnancy.

Molecules are shown by their SMILES.

Consider `CC1(C)C(/C=C/C=C/C=C/C=C2\N(CCCCS(=O)(=O)O)c3ccc4ccccc4c3C2(C)C)=[N+](CCCCS(=O)(=O)[O-])c2ccc3ccccc3c21` [ICG, Indocyanine green], for which, in the data set with plasma proteins, the “binding to plasma proteins” value was “binds tightly to plasma proteins”. For the same compound, the toxicity classification entry in data set [1] is reported as “low”.
